Laboratory results: BigSolDB 2.1

O=C(N[C@@H](Cc1ccc(O)cc1)C(=O)O)OCC1c2ccccc2-c2ccccc21
solubility (mole fraction)
Settings | 293.15 K | 298.15 K | 303.15 K | 308.15 K | 313.15 K | 318.15 K | 323.15 K | 328.15 K | 333.15 K
in acetone | 0.0683 | 0.0723 | 0.077 | 0.078 | 0.0824 | 0.0901 | 0.0959 | – | –
in acetonitrile | 0.00233 | 0.00272 | 0.00326 | 0.00382 | 0.00432 | 0.00504 | 0.00637 | 0.00781 | 0.00884
in dimethyl carbonate | 0.00346 | 0.00367 | 0.0044 | 0.00477 | 0.00583 | 0.00638 | 0.00747 | 0.00918 | 0.0109
in ethyl acetate | 0.0129 | 0.0135 | 0.014 | 0.0152 | 0.0164 | 0.019 | 0.0203 | 0.0222 | 0.0254
in isobutanol | 0.00543 | 0.00685 | 0.00823 | 0.00992 | 0.0123 | 0.0146 | 0.0175 | 0.0219 | 0.0279
in isopropanol | 0.0147 | 0.0179 | 0.0213 | 0.027 | 0.0307 | 0.0385 | 0.043 | 0.0546 | 0.0691
in methyl acetate | 0.0155 | 0.0163 | 0.0173 | 0.0177 | 0.0209 | 0.0219 | 0.0249 | – | –
in n-butanol | 0.0129 | 0.0151 | 0.0178 | 0.0198 | 0.0231 | 0.0281 | 0.0319 | 0.0385 | 0.0463
in n-butyl acetate | 0.00611 | 0.00636 | 0.00688 | 0.00765 | 0.00862 | 0.00933 | 0.00976 | 0.0118 | 0.0124
in n-pentanol | 0.0111 | 0.0121 | 0.0144 | 0.0168 | 0.02 | 0.0231 | 0.0244 | 0.0324 | 0.0388
in n-propyl acetate | 0.00762 | 0.00799 | 0.00861 | 0.00951 | 0.0104 | 0.0108 | 0.0126 | 0.0138 | 0.015
in sec-butanol | 0.0146 | 0.018 | 0.0215 | 0.0263 | 0.0323 | 0.0388 | 0.0454 | 0.0538 | 0.0639
